Reference: PMC9304322, “Targeting retinoic acid receptor alpha-corepressor interaction activates chaperone-mediated autophagy and protects against retinal degeneration” (Nature Communications, 2022)
“And” between values parts separate entries of the source, which are not always exact repeats. Equal entries are not always repeated.

Legend:
[1] = tested on: NIH3T3 cells stably expressing the mCherry-GFP-LC3 reporter; assay: Macroautophagy activity, mCherry-GFP-LC3 reporter; format: cell-based, mouse
Method: Cells were transduced with a lentiviral vector expressing mCherry-GFP-LC3[35], fixed and flux determined as the conversion of dual fluorescence puncta (autophagosomes) into only red fluorescent puncta (autolysosomes). Flux was also measured by immunoblot for LC3 in cells incubated for 6 h with 20 mM NH4Cl/100 μM leupeptin, by discounting the intensity of LC3 in non-treated cells from that in cells treated with the inhibitors.

[2] = tested on: NIH3T3 stably expressing the KFERQ-PS-Dendra; assay: CMA activity, KFERQ-PS-Dendra fluorescent reporter in NIH3T3 mouse fibroblasts; format: cell-based; parameters: CMA activity (Fig. 1d), MEAN / CMA activity (Fig. 1e-g), mean / CMA activity (Fig. 1d), individual experiments / CMA activity, mean (Fig. S2c, second panel) / CMA activity, mean (Fig. S2c, first panel) / CMA activity, mean (Fig. S2c, third panel): unit not given here; settings: for CMA activity (Fig. 1e-g), mean: n = 4
Method: Cells were transduced with lentivirus carrying the KFERQ-PS-Dendra reporter as before. Cells were photoactivated by exposure to a 3.5 mA (current constant) light emitting diode (LED: Norlux, 405 nm) for 3 min and then plated in glass-bottom 96 well plates. At the desired times, cells were fixed with 4% PFA and imaged using high-content microscopy (Operetta system, Perkin Elmer). Images were quantified using the manufacturer’s software in a minimum of 1,200 cells in 9 independent fields per well. […] This was particularly important in the case of primary human cells where the efficiency of transduction was ~65%. To avoid confounding effects for drug-induced changes in cell volume or adherence to the plate that could bring a fraction of the cells per field outside of focus, we set a threshold to count only […] that have at least 1/10 of the average number of […] detected in the untreated wells for each cell type (3–4 puncta/cell in the case of NIH3T3 and N2a cells and 5 puncta/cell in primary human fibroblasts).

[3] = tested on: NIH3T3; assay: Intracellular proteolysis of long half-life proteins; format: cell-based, mouse
Method: Confluent cells were labelled with [^3H]leucine (2μCi/ml) (NEN-PerkinElmer Life Sciences) for 48 h and then extensively washed and maintained in medium with an excess of unlabeled leucine. Proteolysis was calculated from aliquots of the medium taken at different times and precipitated in trichloroacetic acid, as the amount of acid-precipitable radioactivity transformed to acid-soluble radioactivity at each time. Where indicated cell were treated during the chase with […] leupeptin (Sigma, #108975) and […] NH4Cl (to determine lysosomal degradation) or with 100 μm MRT 68921 dihydrochloride (Tocris, #5780) (to determine macroautophagy degradation).

[4] = c0 = 2 (axis unlabelled; ANOVA calls row factor Time)

Question: With `Cc1ccc(C2=Nc3ccc(Cl)cc3OC2)cc1` [AR7, reference compound] as the molecule, how does the effect on macroautophagy ([1]; NIH3T3, MRT-sensitive proteolysis, LC3-II flux, mCherry-GFP-LC3 reporter) read?
Answer: did not have the inhibitory effect on macroautophagy

Question: And the “APG (Fig. S3e)” value [1, 4]?
Answer: 0.9242

Question: What about the “AUT (Fig. S3e)” value [1, 4] of the same molecule?
Answer: 2.505

Question: And the “AV (Fig. S3e)” value [1, 4]?
Answer: 3.429

Question: What about the “APG (Fig. S3e)” value ([1]; c0 = 5 (axis unlabelled)) of the same molecule?
Answer: 0.8222

Question: What about the “AUT (Fig. S3e)” value ([1]; c0 = 5 (axis unlabelled)) of the same molecule?
Answer: 2.321

Question: What about the “AV (Fig. S3e)” value ([1]; c0 = 5 (axis unlabelled)) of the same molecule?
Answer: 3.1431

Question: And the “APG (Fig. S3e)” value ([1]; c0 = 10 (axis unlabelled))?
Answer: 0.7738

Question: What about the “AUT (Fig. S3e)” value ([1]; c0 = 10 (axis unlabelled)) of the same molecule?
Answer: 2.246

Question: What about the “AV (Fig. S3e)” value ([1]; c0 = 10 (axis unlabelled)) of the same molecule?
Answer: 3.0194

Question: And the “APG (Fig. S3e)” value ([1]; c0 = 15 (axis unlabelled))?
Answer: 0.7216

Question: And the “AUT (Fig. S3e)” value ([1]; c0 = 15 (axis unlabelled))?
Answer: 2.244

Question: What about the “AV (Fig. S3e)” value ([1]; c0 = 15 (axis unlabelled)) of the same molecule?
Answer: 2.965

Question: What about the “APG (Fig. S3e)” value ([1]; c0 = 20 (axis unlabelled)) of the same molecule?
Answer: 0.9029

Question: And the “AUT (Fig. S3e)” value ([1]; c0 = 20 (axis unlabelled))?
Answer: 2.059

Question: What about the “AV (Fig. S3e)” value ([1]; c0 = 20 (axis unlabelled)) of the same molecule?
Answer: 2.962

Question: What about the “APG (Fig. S3e)” value ([1]; c0 = 25 (axis unlabelled)) of the same molecule?
Answer: 0.9112

Question: And the “AUT (Fig. S3e)” value ([1]; c0 = 25 (axis unlabelled))?
Answer: 2.774

Question: What about the “AV (Fig. S3e)” value ([1]; c0 = 25 (axis unlabelled)) of the same molecule?
Answer: 3.685

Question: And the “APG (Fig. S3e)” value ([1]; c0 = 30 (axis unlabelled))?
Answer: 0.9867

Question: What about the “AUT (Fig. S3e)” value ([1]; c0 = 30 (axis unlabelled)) of the same molecule?
Answer: 2.8387

Question: What about the “AV (Fig. S3e)” value ([1]; c0 = 30 (axis unlabelled)) of the same molecule?
Answer: 3.825

Question: What about the “APG (Fig. S3e)” value ([1]; c0 = 40 (axis unlabelled)) of the same molecule?
Answer: 1.111

Question: And the “AUT (Fig. S3e)” value ([1]; c0 = 40 (axis unlabelled))?
Answer: 2.723

Question: What about the “AV (Fig. S3e)” value ([1]; c0 = 40 (axis unlabelled)) of the same molecule?
Answer: 3.834

Question: And the “APG (Fig. S3e)” value ([1]; c0 = 50 (axis unlabelled))?
Answer: 0.7488

Question: What about the “AUT (Fig. S3e)” value ([1]; c0 = 50 (axis unlabelled)) of the same molecule?
Answer: 3.18

Question: What about the “AV (Fig. S3e)” value ([1]; c0 = 50 (axis unlabelled)) of the same molecule?
Answer: 3.929

Question: What about the “CMA activity (Fig. 1d), MEAN” value ([2]; 20 μM of each compound, n = 3 independent experiments) of the same molecule?
Answer: 1.943

Question: What about the “CMA activity (Fig. 1d), individual experiments” value ([2]; 20 μM of each compound, single experiments) of the same molecule?
Answer: 1.682 and 2.334 and 1.814

Question: What about the “CMA activity (Fig. 1e-g), mean” value ([2]; 12h, concentration 0.02 (unit not given)) of the same molecule?
Answer: 12.0505

Question: And the “CMA activity (Fig. 1e-g), mean” value ([2]; 12h, concentration 0.2)?
Answer: 11.7342

Question: What about the “CMA activity (Fig. 1e-g), mean” value ([2]; 12h, concentration 2) of the same molecule?
Answer: 11.803

Question: What about the “CMA activity (Fig. 1e-g), mean” value ([2]; 12h, concentration 5) of the same molecule?
Answer: 19.8949

Question: What about the “CMA activity (Fig. 1e-g), mean” value ([2]; 12h, concentration 10) of the same molecule?
Answer: 20.5334

Question: What about the “CMA activity (Fig. 1e-g), mean” value ([2]; 12h, concentration 20) of the same molecule?
Answer: 21.2219

Question: And the “CMA activity (Fig. 1e-g), mean” value ([2]; 12h, concentration 30)?
Answer: 22.9989

Question: What about the “CMA activity (Fig. 1e-g), mean” value ([2]; 12h, concentration 40) of the same molecule?
Answer: 22.6487

Question: And the “CMA activity (Fig. 1e-g), mean” value ([2]; 12h, concentration 50)?
Answer: 26.5841

Question: What about the “CMA activity (Fig. 1e-g), mean” value ([2]; 24h, concentration 0.02) of the same molecule?
Answer: 9.918

Question: What about the “CMA activity (Fig. 1e-g), mean” value ([2]; 24h, concentration 0.2) of the same molecule?
Answer: 11.4731

Question: And the “CMA activity (Fig. 1e-g), mean” value ([2]; 24h, concentration 2)?
Answer: 13.7252

Question: What about the “CMA activity (Fig. 1e-g), mean” value ([2]; 24h, concentration 5) of the same molecule?
Answer: 18.3275

Question: What about the “CMA activity (Fig. 1e-g), mean” value ([2]; 24h, concentration 10) of the same molecule?
Answer: 23.1811

Question: And the “CMA activity (Fig. 1e-g), mean” value ([2]; 24h, concentration 20)?
Answer: 24.726

Question: What about the “CMA activity (Fig. 1e-g), mean” value ([2]; 24h, concentration 30) of the same molecule?
Answer: 25.9835

Question: And the “CMA activity (Fig. 1e-g), mean” value ([2]; 24h, concentration 40)?
Answer: 28.2999

Question: And the “CMA activity (Fig. 1e-g), mean” value ([2]; 24h, concentration 50)?
Answer: 27.6884

Question: What about the “CMA activity (Fig. 1h-j), mean, untreated (0) = 1” value (shortened to “CMA activity (Fig. 1h-j), mean”) ([2]; concentration 0.2, 12+12w (12 h, then 12 h after washing out)) of the same molecule?
Answer: 0.9356

Question: What about the “CMA activity (Fig. 1h-j), mean” value ([2]; concentration 0.2, 12h) of the same molecule?
Answer: 1.057

Question: And the “CMA activity (Fig. 1h-j), mean” value ([2]; concentration 0.2, 24h)?
Answer: 0.9789

Question: And the “CMA activity (Fig. 1h-j), mean” value ([2]; concentration 2, 12+12w)?
Answer: 0.9942

Question: And the “CMA activity (Fig. 1h-j), mean” value ([2]; concentration 2, 12h)?
Answer: 1.064

Question: What about the “CMA activity (Fig. 1h-j), mean” value ([2]; concentration 2, 24h) of the same molecule?
Answer: 1.171

Question: What about the “CMA activity (Fig. 1h-j), mean” value ([2]; concentration 5, 12+12w) of the same molecule?
Answer: 1.015

Question: And the “CMA activity (Fig. 1h-j), mean” value ([2]; concentration 5, 12h)?
Answer: 1.7927

Question: What about the “CMA activity (Fig. 1h-j), mean” value ([2]; concentration 5, 24h) of the same molecule?
Answer: 1.564

Question: What about the “CMA activity (Fig. 1h-j), mean” value ([2]; concentration 10, 12+12w) of the same molecule?
Answer: 0.9858

Question: And the “CMA activity (Fig. 1h-j), mean” value ([2]; concentration 10, 12h)?
Answer: 1.85

Question: And the “CMA activity (Fig. 1h-j), mean” value ([2]; concentration 10, 24h)?
Answer: 1.978

Question: And the “CMA activity (Fig. 1h-j), mean” value ([2]; concentration 20, 12+12w)?
Answer: 0.9968

Question: And the “CMA activity (Fig. 1h-j), mean” value ([2]; concentration 20, 12h)?
Answer: 1.912

Question: And the “CMA activity (Fig. 1h-j), mean” value ([2]; concentration 20, 24h)?
Answer: 2.11

Question: And the “CMA activity (Fig. 1h-j), mean” value ([2]; concentration 30, 12+12w)?
Answer: 1.224

Question: What about the “CMA activity (Fig. 1h-j), mean” value ([2]; concentration 30, 12h) of the same molecule?
Answer: 2.072

Question: And the “CMA activity (Fig. 1h-j), mean” value ([2]; concentration 30, 24h)?
Answer: 2.217

Question: And the “duration of the increase in degradation of long-lived proteins” value ([3]; NIH3T3, 10 μM)?
Answer: sustained only for the first 12 h

Question: What about the “Lysosomal proteolysis, Mean (Fig. S3c)” value ([3]; Time 6) of the same molecule?
Answer: 3.18

Question: What about the “Lysosomal proteolysis, Mean (Fig. S3c)” value ([3]; Time 12) of the same molecule?
Answer: 5.83
